Experimental data taken from US6593306B1, “Methods for modulation and inhibition of telomerase” (Board of Regents, The University of Texas Systems, priority 1995, dated 2003).
Values joined by “and” are separate entries in the source; they are usually repeats but may differ in a detail not shown here. Equal values may be shown once.

Columns and labels:
Type in all cases: biochemical
[1] = molecular target: T1, human cancer telomerase (Homo sapiens, UniProt O14746); assay: Nucleoside triphosphate as telomerase substrate, dGTP replaced in modified reaction; conditions: modified assay; 1 mM dTTP, 3.12 μM [α-32P]dATP
T1 construct: endogenous in cells; host or cells: human cancer cells

[2] = molecular target: T2, human 293 cell telomerase (Homo sapiens, UniProt O14746); assay: Modified telomerase assay (32P-dATP as radiolabeled substrate); conditions: for Inhibition of 293 cell telomerase, modified assay: competing radioactive nucleotide 3.12 μM [α32P]dATP
T2 construct: with 20 μl of S100 enzyme extract; endogenous in cells; host or cells: 293 cells (transformed human embryonic kidney), S100 extract
Procedure: (§1) Telomerase was prepared from transformed human embryonic kidney 293 cell line. Human embryonic kidney 293 cells were grown in Joklik's modified MEM niedium (Sigma, St Louis, Mo.) supplemented with 5% fetal bovine serum at 37° C. in a humidified atmosphere with 5% CO2. The cells were subcultured at 1-2×10^5 cells/ml twice a week. When the cells grew to approximately 1×10^6 cells/ml, the cells (˜2×10^9 cells) were centrifuged and transferred into polypropylene centrifuge (50 ml) tubes and kept on ice. The cells were then centrifuged in a (Beckman GS-6R) centrifuge at 1200 RPM for 10 minutes at 4° C., and resuspended in PBS. The washed cells were resuspended in 15 ml Hypobuffer Mix (10 mM HEPES, pH 8.0, 3 mM KCl, 1 mM MgCl2, 1 mM dithiothreitol, 1 μM leupeptin, 0.1 mM PMSF, 10 μM pepstatin, 0.83 μg/ml chymostatin, 0.83 μg/ml antipain, and 43.2 units/ml RNase Guard) and centrifuged. The cell pellets were resuspended in 0.75×volumes Hypobuffer [Hypobuffer Mix+40 units/ml RNase Guard (Pharmacia, N.J.) to allow the cells to swell. The cell suspensions were homogenized to allow the telomerase to “leak” into the cytosolic fraction. The lysate was then poured into new, autoclaved, 3 ml polyallomer ultracentrifuge tubes and centrifuged at 100,000×g for 1 hour at 4° C. A top lipid layer was carefully removed and discarded, and the supernatant was collected. 1/50 of the volume of 5 M NaCl was added to the clear supernatant fluid to achieve a final concentration of 0.1 M. Sterile glycerol was added until the final glycerol concentration was 20%. The enzyme solution was aliquoted into Eppendorf tubes and quickly frozen in liquid nitrogen and stored at −70° C.
In the conventional telomerase assay, the concentrations of both non-radiolabeled nucleotides, dATP and dTTP, are 1 mM, and the concentration of the radiolabeled [^32P]dGTP is 1.56 μM. Because of the high concentration of dATP and dTTP, the standard assay may not be suitable for determining the potential telomerase inhibition of any “Adenine or Thymine” analogs. […] All other chemicals and reaction conditions are identical to the conventional assay.

[3] = molecular target: T1, human cancer telomerase; assay: Nucleoside triphosphate as telomerase substrate, dATP replaced in conventional reaction; conditions: for incorporation into telomeric ladders, replacing dATP: conventional assay, 0.125-2 mM tested; for Substrate of 293 Telomerase: dATP analogs
Excerpt: As described in Section 2, telomerase catalyzes the incorporation of dATP, dTTP and [α-^32P]dGTP into a (TTAGGG)3 primer. In order to determine whether dATP analog can be incorporated into telomere, native dATP in the standard telomerase reaction is replaced with various concentrations of dATP analogs. Following the reaction, telomeric products are isolated and analyzed as described in Section 2. Similarly, native dTTP in the standard telomerase reaction can be replaced by a structurally modified dTTP analog to test whether the dTTP analog can be used as a telomerase substrate.

[4] = molecular target: T2, human 293 cell telomerase; assay: Conventional telomerase assay (32P-dGTP as radiolabel substrate); conditions: for Inhibition of 293 Telomerase, Conventional Assay *dGTP: up to 2 mM; for IC50: [α-32P]dGTP 1.56 μM, TTP and dATP 1 mM
Procedure: as §1
The assay is based on the ability of the telomerase enzyme in the S100 fractions to recognize an 18-base DNA primer with the DNA sequence (TTAGGG)3. DNA polymerization initiates from the 3′-OH group of the oligonucleotide. By reading from its complementary internal RNA template, telomerase adds a repeated set of 5′-TTAGGG-3′ to the original 18-base primer. Non-synchronous “starts” and “terminations” among the different enzyme complexes result in a degenerative set of different length DNA primers occurring in 6-base increments. Incorporation of [α-^32P]dGTP at the guanine positions of the 5′-TTAGGG-3′ sequence allows the newly synthesized DNA fragments to be visualized by autoradiography. The resulting image forms the characteristic “ladder” structure that is used to identify telomerase activity. The images are scanned using a phosphoimager or laser densitometer (Molecular Dynamics, Sunnyvale, Calif.). Comparisons of the total volumes under the corresponding peaks are used to quantitate the total amount of [α-^32P] incorporated in the primer extension reaction.
The telomerase assay was initiated by mixing 20 μl of 2×reaction mix (100 mM Tris-OAc, pH 8.5, 100 mM KOAc, 10 mM β-mercaptoethanol, 2 mM spermidine, 2 mM MgCl2, 2 mM dATP, 2 mM dTTP, 2 μM oligo primer, potential inhibitors of interest at the appropriate concentration, and 50 μCi [α^32-P]dGTP) with 20 μl of S100 enzyme extract. The reaction mixture was then incubated at 30° C. for 1 hour. The reaction was stopped by incubating sequentially with 50 μl of the stop solution (10 mM Tris pH 7.5, 20 mM EDTA, 0.1 mg/ml RNase A) and 50 μl of deproteinase solution (10 mM Tris pH 7.5, 0.5% SDS, 0.3 mg/ml Proteinase K). The mixture was extracted with 50% phenol/50% chloroform (v/v). The DNA was then precipitated by adding 2.5×volumes of cold EtOH and letting it stand overnight at −70° C. The DNAs were separated on an 8% polyacrylamide/7M urea denaturing gel at 1600 V for 1.5 hours. The gel was dried and exposed to Kodak XAR-5 film to gel in −70° C. Typical autoradiographic exposures required 3-14 days.

[5] = molecular target: T3, human telomerase (Homo sapiens, UniProt O14746); assay: Cell-free telomerase inhibition, conventional or modified assay not stated
T3 construct: telomerase in S100 extracts of transformed human fetal kidney tumor 293 cells (a processive telomerase); endogenous in cells; host or cells: human cells, (S100 extract)
Procedure: Selected nucleoside triphosphates were tested in one or both of the “conventional” or “modified” telomerase assays described in Methods using the human processive and the CHO non-processive telomerases. Initially, three chain-terminators were selected: 2′,3′-dideoxythymidine triphosphate (ddTTP), 3′-fluoro-2′,3′-dideoxythymidine triphosphate (F-ddTTP), and 3′-azido-2′-, 3′-dideoxythymidine triphosphate (AZ-ddTTP) as prototype agents to investigate whether they could inhibit telomerase activity. The three compounds are dTTP analogs without a 3′-OH group for subsequent chain elongation. They may either incorporate into the telomere sequence and terminate further chain elongation or compete directly with dTTP for the substrate binding site in the telomerase reaction. In either case, telomerase activity is inhibited.

[6] = 0.125 mM, read-out: % of Control
[7] = 0.25 mM, read-out: % of Control

T2 sequence (O14746 whole entry): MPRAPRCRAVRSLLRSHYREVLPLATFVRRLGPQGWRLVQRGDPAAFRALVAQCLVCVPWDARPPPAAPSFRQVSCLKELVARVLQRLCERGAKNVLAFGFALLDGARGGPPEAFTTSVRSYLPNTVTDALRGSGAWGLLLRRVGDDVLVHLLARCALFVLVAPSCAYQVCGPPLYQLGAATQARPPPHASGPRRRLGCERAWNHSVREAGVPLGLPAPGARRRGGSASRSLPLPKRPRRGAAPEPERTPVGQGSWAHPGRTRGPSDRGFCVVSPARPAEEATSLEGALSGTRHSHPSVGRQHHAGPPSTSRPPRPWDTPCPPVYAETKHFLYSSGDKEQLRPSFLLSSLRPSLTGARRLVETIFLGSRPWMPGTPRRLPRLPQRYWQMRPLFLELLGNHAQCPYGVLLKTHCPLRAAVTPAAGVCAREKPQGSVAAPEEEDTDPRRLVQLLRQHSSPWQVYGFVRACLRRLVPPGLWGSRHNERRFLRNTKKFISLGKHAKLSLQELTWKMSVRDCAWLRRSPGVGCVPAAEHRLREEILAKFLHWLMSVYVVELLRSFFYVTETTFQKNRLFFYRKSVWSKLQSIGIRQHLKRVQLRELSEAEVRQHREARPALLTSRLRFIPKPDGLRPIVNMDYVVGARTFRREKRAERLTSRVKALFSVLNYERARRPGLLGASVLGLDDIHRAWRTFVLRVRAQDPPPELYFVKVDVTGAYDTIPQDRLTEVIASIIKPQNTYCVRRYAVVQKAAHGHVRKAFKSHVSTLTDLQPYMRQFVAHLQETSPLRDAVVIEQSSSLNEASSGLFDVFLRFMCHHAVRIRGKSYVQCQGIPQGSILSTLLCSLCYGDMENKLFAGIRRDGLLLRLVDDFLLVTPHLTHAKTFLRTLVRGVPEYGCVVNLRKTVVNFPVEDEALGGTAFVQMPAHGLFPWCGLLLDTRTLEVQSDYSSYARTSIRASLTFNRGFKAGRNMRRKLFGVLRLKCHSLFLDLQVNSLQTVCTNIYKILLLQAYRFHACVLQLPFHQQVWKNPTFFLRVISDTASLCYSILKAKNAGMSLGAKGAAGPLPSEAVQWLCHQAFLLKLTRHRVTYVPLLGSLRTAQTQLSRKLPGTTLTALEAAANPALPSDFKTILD
T2 sequence (O60832 whole entry partner): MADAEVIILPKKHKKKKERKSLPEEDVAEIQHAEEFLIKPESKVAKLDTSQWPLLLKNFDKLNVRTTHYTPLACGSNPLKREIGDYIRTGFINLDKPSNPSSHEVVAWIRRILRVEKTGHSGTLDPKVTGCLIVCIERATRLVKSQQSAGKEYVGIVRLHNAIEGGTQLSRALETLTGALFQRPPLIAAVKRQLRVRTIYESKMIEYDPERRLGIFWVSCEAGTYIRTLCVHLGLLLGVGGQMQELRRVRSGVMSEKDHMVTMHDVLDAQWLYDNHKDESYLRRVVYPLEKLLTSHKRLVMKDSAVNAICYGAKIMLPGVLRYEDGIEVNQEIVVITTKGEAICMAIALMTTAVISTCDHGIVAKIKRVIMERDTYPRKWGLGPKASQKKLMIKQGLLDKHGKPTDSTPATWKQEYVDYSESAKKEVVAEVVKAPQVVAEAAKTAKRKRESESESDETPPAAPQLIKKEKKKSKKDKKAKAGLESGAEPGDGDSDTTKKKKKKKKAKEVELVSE
T2 sequence (Q9NPE3 whole entry partner): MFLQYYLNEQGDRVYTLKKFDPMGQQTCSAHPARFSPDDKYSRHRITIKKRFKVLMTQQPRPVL
T2 sequence (Q9NX24 whole entry partner): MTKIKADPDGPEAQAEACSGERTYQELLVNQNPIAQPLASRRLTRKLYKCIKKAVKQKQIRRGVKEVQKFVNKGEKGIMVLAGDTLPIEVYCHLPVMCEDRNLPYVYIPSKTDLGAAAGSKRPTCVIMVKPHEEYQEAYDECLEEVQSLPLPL
T2 sequence (Q9NY12 whole entry partner): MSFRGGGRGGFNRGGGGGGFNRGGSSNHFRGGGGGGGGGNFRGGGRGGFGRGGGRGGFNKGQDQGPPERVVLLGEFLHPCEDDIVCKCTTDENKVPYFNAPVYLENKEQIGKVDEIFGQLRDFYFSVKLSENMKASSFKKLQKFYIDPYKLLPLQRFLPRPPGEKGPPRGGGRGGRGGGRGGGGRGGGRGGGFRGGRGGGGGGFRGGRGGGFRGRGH
T1 sequence (O14746 whole entry): as the sequence (O14746 whole entry) above
T1 sequence (O60832 whole entry partner): as the sequence (O60832 whole entry partner) above
T1 sequence (Q9NPE3 whole entry partner): as the sequence (Q9NPE3 whole entry partner) above
T1 sequence (Q9NX24 whole entry partner): as the sequence (Q9NX24 whole entry partner) above
T1 sequence (Q9NY12 whole entry partner): as the sequence (Q9NY12 whole entry partner) above
T3 sequence (O14746 whole entry): as the sequence (O14746 whole entry) above
T3 sequence (O60832 whole entry partner): as the sequence (O60832 whole entry partner) above
T3 sequence (Q9NPE3 whole entry partner): as the sequence (Q9NPE3 whole entry partner) above
T3 sequence (Q9NX24 whole entry partner): as the sequence (Q9NX24 whole entry partner) above
T3 sequence (Q9NY12 whole entry partner): as the sequence (Q9NY12 whole entry partner) above

Row | Structure (SMILES) | incorporation into telomeric ladders, replacing dGTP [1] | Inhibition of 293 cell telomerase, modified assay [2] | incorporation into telomeric ladders, replacing dATP [3] | Substrate of 293 Telomerase [3] | Inhibition of 293 Telomerase, Conventional Assay *dGTP [4] | remaining activity at 125 µM [2, 6] [%] | remaining activity at 250 µM [2, 7] [%] | remaining activity at 500 µM ([2]; 0.5 mM, read-out: % of Control) [%] | remaining activity at 1000 µM ([2]; 1.0 mM, read-out: % of Control) [%] | remaining activity at 2000 µM ([2]; 2 mM, read-out: % of Control) [%] | remaining activity at 125 µM [4, 6] [%] | remaining activity at 250 µM [4, 7] [%] | remaining activity at 500 µM ([4]; 0.5 mM, read-out: % of Control) [%] | remaining activity at 1000 µM ([4]; 1.0 mM, read-out: % of Control) [%] | remaining activity at 2000 µM ([4]; 2.0 mM, read-out: % of Control) [%] | IC50 [4] | also measured
1 | Nc1nc2c(ccn2[C@H]2C[C@H](O)[C@@H](COP(=O)(O)OP(=O)(O)OP(=O)(O)O)O2)c(=S)[nH]1 [Compound 8, 6-Thio-7-deaza-2′-deoxyguanosine Triphosphate] | incorporation |  |  |  |  |  |  |  |  |  |  |  |  |  |  |  | 
2 | Nc1ncnc2c1ncn2[C@H]1C[C@H](O)[C@@H](COP(=O)(O)OP(=O)(O)CP(=O)(O)O)O1 [NA004, 2′-Deoxyadenosine-5′-β,γ-Methylene Triphosphate] |  | concentration-dependent inhibition | incorporated | Replace dATP Is a substrate No substrate inhibition | No Inhibition (Up to 2 mM) |  |  |  |  |  |  |  |  |  |  |  | % of Control ([2]; 0.125 mM): 6%; % of Control ([2]; 0.25 mM): 1.7%; % of Control ([2]; 0.5 mM): 0%; % of Control ([2]; 1.0 mM): 0%; % of Control ([2]; 2 mM): 0%; % of Control ([4]; 0.125 mM): 70%; % of Control ([4]; 0.25 mM): 72%; % of Control ([4]; 0.5 mM): 88%; % of Control ([4]; 1.0 mM): 98%; % of Control ([4]; 2.0 mM): 99%
3 | Nc1ncnc2c1ncn2[C@H]1C[C@H](O)[C@@H](COP(O)(=S)OP(=O)(O)OP(=O)(O)O)O1 (stereo partly drawn) [NA006, 2′-Deoxyadenosine-5′—O—(1-Thio-Triphosphate)] |  | concentration-dependent inhibition | incorporated | Is a substrate No substrate inhibition | No Inhibition (up to 2 mM) | 0 | 0 | 0 | 0 | 0 | 120 | 103 | 103 | 100 | 113 |  | 
4 | Nc1ncnc2c1ncn2[C@H]1CC[C@@H](COP(=O)(O)OP(=O)(O)OP(=O)(O)O)O1 [NA007, 2′,3′-Dideoxyadenosine-5′-Triphosphate] |  |  | no apparent NA007 incorporation was detected | No product formed using (TTAGGG)^3 primer | No Inhibition (up to 2 mM) | 0 | 0 | 0 | 0 | 0 | 118 | 116 | 141 | 126 | 133 |  | inhibition of human telomerase activity ([5]; 1 mM): inhibited
5 | Nc1nc2c(ncn2[C@H]2CC[C@@H](COP(=O)(O)OP(=O)(O)OP(=O)(O)O)O2)c(=O)[nH]1 [NA020, 2′,3′-Dideoxyguanosine-5′-Triphosphate] | no apparent NA020 incorporation was detected |  |  |  |  |  |  |  |  |  |  |  | 0 | 0 |  | < 125 µM | remaining activity at 12.5 µM ([4]; 0.0125 mM, read-out: % of Control): 0%; remaining activity at 25 µM ([4]; 0.025 mM, read-out: % of Control): 0%; remaining activity at 50 µM ([4]; 0.05 mM, read-out: % of Control): 0%; remaining activity at 100 µM ([4]; 0.1 mM, read-out: % of Control): 0%; remaining activity at 200 µM ([4]; 0.2 mM, read-out: % of Control): 0%; concentration at which telomerase activity is completely inhibited ([4]; lowest concentration tested): ≤ 12.5 µM
6 | Nc1ncnc2c1ccn2[C@H]1C[C@H](O)[C@@H](COP(=O)(O)OP(=O)(O)OP(=O)(O)O)O1 [NA023, 7-Deaza-2′-Deoxyadenosine-5′-Triphosphate] |  | concentration-dependent inhibition |  | Is a substrate Produces short telomere Substrate Inhibition | concentration-dependent inhibition |  |  |  |  |  |  |  |  |  |  | 59 µM and < 100 µM | remaining activity at 1 µM ([2]; 1.0 μM, read-out: % of Control): 69%; remaining activity at 2.5 µM ([2]; 2.5 μM, read-out: % of Control): 46%; remaining activity at 5 µM ([2]; 5.0 μM, read-out: % of Control): 57%; remaining activity at 7.5 µM ([2]; 7.5 μM, read-out: % of Control): 40%; remaining activity at 10 µM ([2]; 10 μM, read-out: % of Control): 23%; remaining activity at 25 µM ([2]; 25 μM, read-out: % of Control): 4%; remaining activity at 50 µM ([2]; 50 μM, read-out: % of Control): 0%; remaining activity at 75 µM ([2]; 75 μM, read-out: % of Control): 0%; remaining activity at 100 µM ([2]; 100 μM, read-out: % of Control): 0%; IC50 ([2]; [α-32P]dATP 3.12 μM, TTP and dGTP 1 mM): 8 µM; IC50 ([5]; Summary values, assay variant not stated, read-out: IC50): 78.5 µM; concentration above which no telomerase activity was detected ([3]; dATP replaced, 1 mM TTP, 1.56 μM [α-32P]dGTP): > 1.5 mM
